Data published in ChEMBL document CHEMBL3425431, “Synthesis and evaluation of constrained phosphoramidate inhibitors of prostate-specific membrane antigen” (Bioorg Med Chem Lett, 2015).
pIC50: −log10 of the molar value. The source made the active and inactive calls. No cut-off for these calls is given here.

How the values were obtained:
[1] = biological target: T1, Glutamate carboxypeptidase 2 (Homo sapiens, UniProt Q04609); details: 0.1 uM
Target sequence in this assay (Q04609 whole entry, looked up): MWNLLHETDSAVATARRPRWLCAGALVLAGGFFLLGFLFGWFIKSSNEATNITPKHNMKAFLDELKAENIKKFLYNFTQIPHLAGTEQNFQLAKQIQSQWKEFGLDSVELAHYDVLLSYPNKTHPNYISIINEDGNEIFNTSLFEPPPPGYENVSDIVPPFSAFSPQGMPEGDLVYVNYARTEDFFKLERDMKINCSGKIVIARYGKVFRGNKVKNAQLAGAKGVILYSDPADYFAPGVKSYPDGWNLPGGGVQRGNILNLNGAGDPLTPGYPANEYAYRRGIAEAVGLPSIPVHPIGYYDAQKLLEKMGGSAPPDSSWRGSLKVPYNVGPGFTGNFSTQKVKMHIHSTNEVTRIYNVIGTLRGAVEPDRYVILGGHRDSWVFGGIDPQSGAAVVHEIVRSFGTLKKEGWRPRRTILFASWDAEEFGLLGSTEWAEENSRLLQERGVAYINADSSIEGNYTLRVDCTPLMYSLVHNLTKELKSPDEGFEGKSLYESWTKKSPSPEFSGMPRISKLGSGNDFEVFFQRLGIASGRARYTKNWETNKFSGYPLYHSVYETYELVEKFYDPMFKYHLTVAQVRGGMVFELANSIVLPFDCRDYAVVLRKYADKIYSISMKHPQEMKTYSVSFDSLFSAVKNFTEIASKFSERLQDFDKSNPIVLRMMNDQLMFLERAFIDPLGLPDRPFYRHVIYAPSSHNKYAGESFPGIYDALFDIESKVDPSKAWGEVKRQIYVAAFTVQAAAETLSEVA
Description: Slow reversible inhibition of PSMA (unknown origin) at 0.1 uM pre-incubated for 10 mins before PABGgG substrate addition by HPLC method

[2] = biological target: T1, Glutamate carboxypeptidase 2; assay: Inhibition of PSMA (unknown origin) incubated for 15 mins using PABGgG substrate by HPLC method
Target sequence in this assay (Q04609 whole entry): as the sequence (Q04609 whole entry, looked up) above

Mus musculus = assay: Drug uptake in other organs of human CWR22Rv1 cells xenografted athymic NCr-nu/nu mouse at 200 uCi, iv after 2 hrs by microPET/CT imaging method; format: ADME, organism-based; details: in vivo
Kidney = assay: Drug uptake in kidney of human CWR22Rv1 cells xenografted athymic NCr-nu/nu mouse at 200 uCi, iv after 2 hrs by microPET/CT imaging method; format: ADME, organism-based; details: in vivo
[3] = Drug uptake in tumor of human CWR22Rv1 cells xenografted athymic NCr-nu/nu mouse at 200 uCi, iv after 2 hrs by microPET/CT imaging method; format: ADME, organism-based, CWR22R; details: in vivo
[4] = Half life in pH 4.5 buffer at 50 degC by [31P] NMR spectrometry; format: physicochemical
[5] = Half life in pH 4.5 buffer at 70 degC by [31P] NMR spectrometry; format: physicochemical

Row | SMILES | inhibition [1] | pIC50 [2] | also measured
1 | O=C(O)CC[C@H](NP(=O)(O)O[C@H]1C[C@H](C(=O)O)N(C(=O)CC[C@H](NC(=O)CCCCCNC(=O)c2ccc(F)cc2)C(=O)O)C1)C(=O)O | Active | 7.96 | –
2 | O=C(O)CC[C@H](NP(=O)(O)OCCC[C@H](NC(=O)CC[C@H](NC(=O)c1ccc(F)cc1)C(=O)O)C(=O)O)C(=O)O | – | 8.89 | –
3 | O=C(O)CC[C@H](NP(=O)(O)O[C@@H]1C[C@@H](C(=O)O)N(C(=O)CC[C@H](NC(=O)c2ccc(F)cc2)C(=O)O)C1)C(=O)O | Active | 8.59 | –
4 | NCCCCCC(=O)N[C@@H](CCC(=O)N1C[C@H](OP(=O)(O)N[C@@H](CCC(=O)O)C(=O)O)C[C@H]1C(=O)O)C(=O)O | Active | 7.10 | –
5 | O=C(O)CC[C@H](NP(=O)(O)O[C@@H]1C[C@@H](C(=O)O)N(C(=O)CC[C@H](NC(=O)CCCCCNC(=O)c2ccc(F)cc2)C(=O)O)C1)C(=O)O.O=C(O)CC[C@H](NP(=O)(O)O[C@@H]1C[C@@H](C(=O)O)N(C(=O)CC[C@H](NC(=O)CCCCCNC(=O)c2ccc([18F])cc2)C(=O)O)C1)C(=O)O | – | – | Drug uptake (Mus musculus): Active; Drug uptake (Kidney): Active; Drug uptake [3]: Active
6 | N[C@@H](CCC(=O)N1C[C@H](OP(=O)(O)N[C@@H](CCC(=O)O)C(=O)O)C[C@H]1C(=O)O)C(=O)O | Active | 7.22 | –
7 | N[C@@H](CCC(=O)N[C@@H](CCCOP(=O)(O)N[C@@H](CCC(=O)O)C(=O)O)C(=O)O)C(=O)O | – | 7.57 | –
8 | O=C(O)CC[C@H](NP(=O)(O)O[C@H]1C[C@H](C(=O)O)N(C(=O)CC[C@H](NC(=O)c2ccc(F)cc2)C(=O)O)C1)C(=O)O | Active | 8.52 | –
9 | N[C@@H](CCC(=O)N1C[C@@H](OP(=O)(O)N[C@@H](CCC(=O)O)C(=O)O)C[C@@H]1C(=O)O)C(=O)O | Active | 6.45 | –
10 | NCCCCCC(=O)N[C@@H](CCC(=O)N[C@@H](CCCOP(=O)(O)N[C@@H](CCC(=O)O)C(=O)O)C(=O)O)C(=O)O | – | 7.72 | –
11 | NCCCCCC(=O)N[C@@H](CCC(=O)N1C[C@@H](OP(=O)(O)N[C@@H](CCC(=O)O)C(=O)O)C[C@@H]1C(=O)O)C(=O)O | Active | 6.95 | –
12 | O=C(O)CC[C@H](NP(=O)(O)O[C@@H]1C[C@@H](C(=O)O)N(C(=O)CC[C@H](NC(=O)CCCCCNC(=O)c2ccc(F)cc2)C(=O)O)C1)C(=O)O | Active | 8.89 | half-life [4]: 105 min; half-life [5]: 32 min
13 | O=C(O)CC[C@H](NP(=O)(O)OCCC[C@H](NC(=O)CC[C@H](NC(=O)CCCCCNC(=O)c1ccc(F)cc1)C(=O)O)C(=O)O)C(=O)O [CTT-1057] | – | 9.40 | half-life [4]: 75 min; half-life [5]: 12 min
